# Reference: paper PMC5128008, “Antimicrobial activity and stability of the D-amino acid substituted derivatives of antimicrobial peptide polybia-MPI” (AMB Express, 2016)
# Where a SMILES comes first, the peptide text is derived from it. Where no end group is shown, it is not given here. [ ]: non-standard residue; d: D form.
# How the values were obtained:
# [1] = test system: Bacillus subtilis (ATCC 23857); assay: MIC, broth microdilution; assay type: cell-based; settings: Mueller–Hinton broth, 2 × 10^4 cfu/ml, peptide 1 to 256 µM, 18 h, 37 °C, visible turbidity, triplicate
# Description: (§1) The minimal inhibitory concentration (MIC) of the peptides was measured in triplicate by the standard broth microdilution method (Peterson et al. [1980]; Wang et al. [2012]). In brief, bacteria/fungi were cultured overnight to mid-logarithmic-phase in Mueller–Hinton broth (MHB)/Sabouraud dextrose broth. The cultures were diluted to a final concentration of 2 × 10^4 cfu/ml in fresh Mueller–Hinton broth (MHB)/Sabouraud dextrose broth. Each well of 96-well propylene microtitre plates was filled with 100 µl cell suspension and 100 μl peptide solution of twofold diluted serially. And the final concentrations of peptide mixtures ranged from 1 to 256 µM. Controls were done without peptides. After 18 h of incubation at 37 °C (bacteria)/35 °C (fungi), the minimal inhibitory concentration (MIC) of the peptides was evaluated by visible turbidity in each well.
# [2] = test system: Candida albicans ATCC (ATCC 14053); assay: MIC, broth microdilution; assay type: cell-based; settings: Candida albicans (ATCC 14053), Sabouraud dextrose broth, 2 × 10^4 cfu/ml, peptide 1 to 256 µM, 18 h, 35 °C, visible turbidity, triplicate
# Description: as §1
# [3] = test system: Candida glabrata ATCC (ATCC 2001); assay: MIC, broth microdilution; assay type: cell-based; settings: Candida glabrata (ATCC 2001), Sabouraud dextrose broth, 2 × 10^4 cfu/ml, peptide 1 to 256 µM, 18 h, 35 °C, visible turbidity, triplicate
# Description: as §1
# [4] = test system: Candida krusei (ATCC 6258); assay: MIC, broth microdilution; assay type: cell-based; settings: Sabouraud dextrose broth, 2 × 10^4 cfu/ml, peptide 1 to 256 µM, 18 h, 35 °C, visible turbidity, triplicate
# Description: as §1
# [5] = test system: Candida parapsilosis (ATCC 22019); assay: MIC, broth microdilution; assay type: cell-based; settings: Sabouraud dextrose broth, 2 × 10^4 cfu/ml, peptide 1 to 256 µM, 18 h, 35 °C, visible turbidity, triplicate
# Description: as §1
# [6] = test system: Candida tropicalis (ATCC 750); assay: MIC, broth microdilution; assay type: cell-based; settings: Sabouraud dextrose broth, 2 × 10^4 cfu/ml, peptide 1 to 256 µM, 18 h, 35 °C, visible turbidity, triplicate
# Description: as §1
# E. coli (ATCC 2592) = assay: MIC, broth microdilution; assay type: cell-based; settings: Mueller–Hinton broth, 2 × 10^4 cfu/ml, peptide 1 to 256 µM, 18 h, 37 °C, visible turbidity, triplicate
# Description: as §1
# [7] = test system: E. coli (ML-35) (ATCC 43827); assay: MIC, broth microdilution; assay type: cell-based; settings: Mueller–Hinton broth, 2 × 10^4 cfu/ml, peptide 1 to 256 µM, 18 h, 37 °C, visible turbidity, triplicate
# Description: as §1
# [8] = test system: Pseudomonas aeruginosa (ATCC 27853); assay: MIC, broth microdilution; assay type: cell-based; settings: Mueller–Hinton broth, 2 × 10^4 cfu/ml, peptide 1 to 256 µM, 18 h, 37 °C, visible turbidity, triplicate
# Description: as §1
# [9] = test system: Staphylococcus aureus (ATCC 29213); assay: MIC, broth microdilution; assay type: cell-based; settings: Mueller–Hinton broth, 2 × 10^4 cfu/ml, peptide 1 to 256 µM, 18 h, 37 °C, visible turbidity, triplicate
# Description: as §1
# [10] = test system: Staphylococcus epidermidis (ATCC 12228); assay: MIC, broth microdilution; assay type: cell-based; settings: Mueller–Hinton broth, 2 × 10^4 cfu/ml, peptide 1 to 256 µM, 18 h, 37 °C, visible turbidity, triplicate
# Description: as §1
# sakazakii (ATCC 29544) [11] = assay: MIC, broth microdilution; assay type: cell-based; settings: Mueller–Hinton broth, 2 × 10^4 cfu/ml, peptide 1 to 256 µM, 18 h, 37 °C, visible turbidity, triplicate
# Description: as §1
# [12] = test system: Bacillus subtilis (ATCC23857); assay: MBC, plating after MIC incubation; assay type: cell-based; settings: 50 µl aliquots from MIC wells onto agar plates, overnight 37 °C, lowest concentration reducing CFUs at least 99.9%
# Description: as §1
# (§2) The minimal bactericidal concentrations (MBCs) and minimum fungicidal concentration (MFCs) of the peptides was determined at the end of the incubation period by transferring 50 µl aliquots onto agar plates and incubated overnight at 37 °C/35 °C. The MBC/MFC was set as the lowest concentration of the number of CFUs that reduced at least 99.9%.
# E. coli (ATCC2592) = assay: MBC, plating after MIC incubation; assay type: cell-based; settings: 50 µl aliquots from MIC wells onto agar plates, overnight 37 °C, lowest concentration reducing CFUs at least 99.9%
# Description: as §1, §2
# [13] = test system: E. coli (ML-35) (ATCC43827); assay: MBC, plating after MIC incubation; assay type: cell-based; settings: 50 µl aliquots from MIC wells onto agar plates, overnight 37 °C, lowest concentration reducing CFUs at least 99.9%
# Description: as §1, §2
# [14] = test system: Pseudomonas aeruginosa (ATCC27853); assay: MBC, plating after MIC incubation; assay type: cell-based; settings: 50 µl aliquots from MIC wells onto agar plates, overnight 37 °C, lowest concentration reducing CFUs at least 99.9%
# Description: as §1, §2
# [15] = test system: Staphylococcus aureus (ATCC29213); assay: MBC, plating after MIC incubation; assay type: cell-based; settings: 50 µl aliquots from MIC wells onto agar plates, overnight 37 °C, lowest concentration reducing CFUs at least 99.9%
# Description: as §1, §2
# [16] = test system: Staphylococcus epidermidis (ATCC 12228); assay: MBC, plating after MIC incubation; assay type: cell-based; settings: 50 µl aliquots from MIC wells onto agar plates, overnight 37 °C, lowest concentration reducing CFUs at least 99.9%
# Description: as §1, §2
# sakazakii (ATCC 29544) [17] = assay: MBC, plating after MIC incubation; assay type: cell-based; settings: 50 µl aliquots from MIC wells onto agar plates, overnight 37 °C, lowest concentration reducing CFUs at least 99.9%
# Description: as §1, §2
# C. albicans (ATCC 14053) = assay: MFC, plating after MIC incubation; assay type: cell-based; settings: 50 µl aliquots from MIC wells onto agar plates, overnight 35 °C, lowest concentration reducing CFUs at least 99.9%
# Description: as §1, §2
# C. glabrata (ATCC 2001) = assay: MFC, plating after MIC incubation; assay type: cell-based; settings: 50 µl aliquots from MIC wells onto agar plates, overnight 35 °C, lowest concentration reducing CFUs at least 99.9%
# Description: as §1, §2
# C. krusei (ATCC 6258) = assay: MFC, plating after MIC incubation; assay type: cell-based; settings: 50 µl aliquots from MIC wells onto agar plates, overnight 35 °C, lowest concentration reducing CFUs at least 99.9%
# Description: as §1, §2
# C.tropicalis (ATCC 750) = assay: MFC, plating after MIC incubation; assay type: cell-based; settings: 50 µl aliquots from MIC wells onto agar plates, overnight 35 °C, lowest concentration reducing CFUs at least 99.9%
# Description: as §1, §2
# trypsin = assay: RP-HPLC analysis of stability to trypsin; assay type: in vitro ADME; settings: peptide 10 mM, trypsin 0.2 mg/ml, 37 °C, 0 and 360 min, TFA/acetonitrile precipitation, Fig. 7
# Description: The stability of polybia-MPI and its analogues was assayed with trypsin or chymotrypsin in a volume ratio of 1:15 (peptide:trypsin) (Choi et al. [2013]; Hamamoto et al. [2002]; Molhoek et al. [2011]). Peptides at the concentration of 10 mM were incubated with trypsin or chymotrypsin (0.2 mg/ml) at 37 °C. 40 µl samples of the incubations were taken for the time of 0 and 360 min, respectively. Then, the samples were mixed with 80 µl of 15% trifluoroacetic acid (TFA) and 80 µl acetonitrile which incubated at 4 °C for at least 15 min to precipitate proteins. The supernatant was collected of each sample after centrifugation at 13,000 rpm for 10 min and were detected with reverse phase high performance liquid chromatography (RP-HPLC) analysis.
# Fig. 7 HPLC analysis of the susceptibility of polybia-MPI, D-MPI and D-lys-MPI to trypsin and chymotrypsin. Peptides at the concentration of 10 mM were incubated with trypsin or chymotrypsin at 37 °C. At the determined time interval, samples were taken and mixed with trifluoroacetic acid (TFA) and acetonitrile to precipitate proteins, respectively. Then the samples were detected with reverse phase high performance liquid chromatography (RP-HPLC) analysis
# [18] = RP-HPLC analysis of stability to proteases in human serum; assay type: in vitro ADME; settings: method details not given
# Text: In the present study, HPLC was used to determine the stability of polybia-MPI, D-lys-MPI and D-MPI to trypsin, chymotrypsin and proteases in human serum.
# (ATCC 700603) = settings: ATCC 700603, 18 h
Molecule,MIC [1] [µM],MIC [2] [µM],MIC [3] [µM],MIC [4] [µM],MIC [5] [µM],MIC [6] [µM],MIC (E. coli (ATCC 2592)) [µM],MIC [7] [µM],MIC [8] [µM],MIC [9] [µM],MIC [10] [µM],MIC (sakazakii (ATCC 29544) [11]) [µM],MBC/MFC [12] [µM],MBC/MFC (E. coli (ATCC2592)) [µM],MBC/MFC [13] [µM],MBC/MFC [14] [µM],MBC/MFC [15] [µM],MBC/MFC [16] [µM],MBC/MFC (sakazakii (ATCC 29544) [17]) [µM],MBC/MFC (C. albicans (ATCC 14053)) [µM],further results
IDWKKLLDAAKQIL-NH2 [Polybia-MPI],8,16,8,8,64,8,32,32,128,32,32,64,8,32,256,>256,128,32,64,16,MBC/MFC (C. glabrata (ATCC 2001)): 32 µM; MBC/MFC (C. krusei (ATCC 6258)): 16 µM; MBC/MFC (C.tropicalis (ATCC 750)): 32 µM; susceptibility to trypsin by HPLC profile (trypsin): susceptible; susceptibility to proteases in human serum by HPLC profile [18]: susceptible; MBC/MFC ((ATCC 700603)): 256 µM
CC[C@H](C)[C@H](N)C(=O)N[C@@H](CC(=O)O)C(=O)N[C@@H](Cc1c[nH]c2ccccc12)C(=O)N[C@H](CCCCN)C(=O)N[C@H](CCCCN)C(=O)N[C@@H](CC(C)C)C(=O)N[C@@H](CC(C)C)C(=O)N[C@@H](CC(=O)O)C(=O)N[C@@H](C)C(=O)N[C@@H](C)C(=O)N[C@H](CCCCN)C(=O)N[C@@H](CCC(N)=O)C(=O)N[C@H](C(=O)N[C@@H](CC(C)C)C(N)=O)[C@@H](C)CC [D-lys-MPI] (H-IDW[dK][dK]LLDAA[dK]QIL-NH2),>256,256,128,128,>256,64,>256,>256,>256,>256,256,>256,>256,>256,>256,>256,>256,>256,>256,>256,MBC/MFC (C. glabrata (ATCC 2001)): 256 µM; MBC/MFC (C. krusei (ATCC 6258)): 256 µM; MBC/MFC (C.tropicalis (ATCC 750)): 128 µM; susceptibility to trypsin by HPLC profile (trypsin): not or only partly degraded; susceptibility to proteases in human serum by HPLC profile [18]: not or only partly degraded; MBC/MFC ((ATCC 700603)): >256 µM
CC[C@@H](C)[C@@H](N)C(=O)N[C@H](CC(=O)O)C(=O)N[C@H](Cc1c[nH]c2ccccc12)C(=O)N[C@H](CCCCN)C(=O)N[C@H](CCCCN)C(=O)N[C@H](CC(C)C)C(=O)N[C@H](CC(C)C)C(=O)N[C@H](CC(=O)O)C(=O)N[C@H](C)C(=O)N[C@H](C)C(=O)N[C@H](CCCCN)C(=O)N[C@H](CCC(N)=O)C(=O)N[C@@H](C(=O)N[C@H](CC(C)C)C(N)=O)[C@H](C)CC [D-MPI] (H-[dI][dD][dW][dK][dK][dL][dL][dD][dA][dA][dK][dQ][dI][dL]-NH2),8,16,16,8,32,16,16,32,64,16,16,32,8,16,64,128,64,128,64,16,MBC/MFC (C. glabrata (ATCC 2001)): 32 µM; MBC/MFC (C. krusei (ATCC 6258)): 8 µM; MBC/MFC (C.tropicalis (ATCC 750)): 16 µM; susceptibility to trypsin by HPLC profile (trypsin): not or only partly degraded; susceptibility to proteases in human serum by HPLC profile [18]: not or only partly degraded; MBC/MFC ((ATCC 700603)): 128 µM
